Assay [1] has as its target T1, ERK5 (Homo sapiens, UniProt Q13164). The assay can be described thus: ERK5 kinase activity in vitro assay (32P-ATP, PIMtide substrate). Conditions: for IC50: in vitro assay, recombinant active ERK5, read-out: Enzymatic IC50 (ERK5). On the set-up: hexahistidine (His6) (N); made in house; host or cells: Spodoptera frugiperda 21 cells (baculovirus, Bac-to-Bac). It counts as biochemical. The protocol:
pFastBAC vector encoding N-terminal hexahistidine-tagged human ERK5 and HA-tagged human MEK5-DD (constitutively active) were used to generate recombinant baculovirus using the Bac-to-Bac system (Invitrogen). […] His-tagged ERK5 was purified as described for His-tagged BRSK1[33], using 5 mL Ni-NTA-agarose resin (Qiagen) followed by gel filtration chromatography on Superdex 200HR column on an AKTA system (GE Healthcare).
Assays were carried out for 20 min at 30 °C, terminated by applying the reaction mixture onto p81 paper and the incorporated radioactivity measured as described previously.

Assay [2] has as its target T1, ERK5. The assay can be described thus: ERK5 autophosphorylation assay (EGF-stimulated, mobility shift immunoblot). The format is cell-based. On the set-up: endogenous in cells; host or cells: HeLa. The note with it: inhibition of EGF-stimulated autophosphorylation of ERK5 in HeLa cells; read-out: Cellular EC50 (ERK5). An excerpt: Proteins from total cell lysates were resolved by 6% sodium dodecyl sulfate (SDS)-poly-acrylamide gel electrophoresis (PAGE), transferred to nitrocellulose membrane, blocked in 5% nonfat milk, and blotted with anti-ERK5 antibody.
A general note: In western blotting, separated proteins are transferred to a membrane and probed.

T1 sequence (Q13164 whole entry): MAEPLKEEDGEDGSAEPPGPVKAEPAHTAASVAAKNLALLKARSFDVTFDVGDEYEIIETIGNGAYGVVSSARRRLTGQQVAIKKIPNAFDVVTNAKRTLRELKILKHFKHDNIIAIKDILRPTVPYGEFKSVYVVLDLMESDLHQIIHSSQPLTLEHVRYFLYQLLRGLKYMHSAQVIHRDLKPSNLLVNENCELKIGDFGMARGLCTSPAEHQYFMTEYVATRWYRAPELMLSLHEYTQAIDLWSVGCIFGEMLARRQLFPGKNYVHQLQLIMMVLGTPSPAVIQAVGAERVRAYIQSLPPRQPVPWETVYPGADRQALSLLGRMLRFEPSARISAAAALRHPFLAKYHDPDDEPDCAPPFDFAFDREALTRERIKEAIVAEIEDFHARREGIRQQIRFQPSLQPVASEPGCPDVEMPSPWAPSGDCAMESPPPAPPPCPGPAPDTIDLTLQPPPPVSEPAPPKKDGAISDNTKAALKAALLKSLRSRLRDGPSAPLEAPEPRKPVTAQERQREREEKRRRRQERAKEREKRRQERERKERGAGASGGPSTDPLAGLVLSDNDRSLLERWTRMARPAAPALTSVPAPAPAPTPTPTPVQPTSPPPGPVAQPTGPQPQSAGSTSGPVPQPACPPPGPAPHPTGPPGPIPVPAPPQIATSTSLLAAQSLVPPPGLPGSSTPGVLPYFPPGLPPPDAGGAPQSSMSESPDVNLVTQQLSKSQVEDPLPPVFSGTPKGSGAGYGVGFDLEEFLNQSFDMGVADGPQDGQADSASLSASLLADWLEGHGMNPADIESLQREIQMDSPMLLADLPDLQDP

In the case of `COc1cc(N2CCC(O)CC2)ccc1Nc1ncc2c(n1)N(C)c1ccccc1C(=O)N2C` [Compound 6], the IC50 – broadly, the point on the concentration scale where inhibition reaches its midpoint – in assay [1] was 297 ± 14 nM. Further, in assay [2], the EC50 – broadly, the midpoint of the concentration-response curve – was determined as 240 ± 40 nM.
The matching figures for `COc1cc(N2CCOCC2)ccc1Nc1ncc2c(n1)N(C)c1ccccc1C(=O)N2C` [Compound 7]: 233 ± 19 nM and 260 ± 30 nM.
For `CN1C(=O)c2ccccc2N(C)c2nc(Nc3ccc(S(N)(=O)=O)cc3)ncc21` [Compound 8], in assay [1], the concentration for half-maximal inhibition (IC50) is 171 ± 16 nM. For the same molecule, the concentration for a half-maximal effect (EC50) in assay [2] is 310 ± 60 nM.
Turning to `CN1C(=O)c2ccccc2N(C)c2nc(NCCc3cnc[nH]3)ncc21` [Compound 9], the IC50 in assay [1] was 1720 ± 221 nM. For the same molecule, the EC50 in assay [2] came out at 4680 ± 520 nM.
In the same order, the values of `CN1CCC(Nc2ncc3c(n2)N(C)c2ccccc2C(=O)N3C)CC1` [Compound 10] are 1250 ± 151 nM and 4110 ± 590 nM.
On to `CC(C)Oc1cc(N2CCC(O)CC2)ccc1Nc1ncc2c(n1)N(C)c1ccccc1C(=O)N2C` [Compound 12], for which the IC50 in assay [1] worked out at 1530 ± 172 nM. Also, in assay [2], the EC50 is over 500 nM.
As for `COc1cc(NCCN(C)C)ccc1Nc1ncc2c(n1)N(C)c1ccccc1C(=O)N2C` [Compound 13], the IC50 in assay [1] stood at 140 ± 9 nM. Further, the EC50 in assay [2] is 240 ± 30 nM.
In the same order, the values of `COc1cc(C(=O)NC2CCN(C)CC2)ccc1Nc1ncc2c(n1)N(C)c1ccccc1C(=O)N2C` [Compound 14] are 338 ± 18 nM and 320 ± 50 nM.
Regarding `COc1cc(N2CCN(C)CC2)ccc1Nc1ncc2c(n1)N(C)c1ccccc1C(=O)N2` [Compound 16], in assay [1], the IC50 amounted to 1450 ± 210 nM. Further, in assay [1] (relative to compound 5), the “fold decrease in activity for ERK5” value came to 4 fold. Further, in assay [2], the EC50 is over 1000 nM.
On to `CCN1c2ccccc2C(=O)N(C)c2cnc(Nc3ccc(N4CCN(C)CC4)cc3OC)nc21` [Compound 17], for which the IC50 in assay [1] came to 66 ± 7 nM. For the same molecule, the EC50 in assay [2] amounted to 200 ± 40 nM.
In the same order, the values of `COc1cc(N2CCN(C)CC2)ccc1Nc1ncc2c(n1)N(C(C)C)c1ccccc1C(=O)N2C` [Compound 18] are 98 ± 12 nM and 230 ± 30 nM.
The matching figures for `COc1cc(N2CCN(C)CC2)ccc1Nc1ncc2c(n1)N(C1CCCC1)c1ccccc1C(=O)N2C` [Compound 19]: 146 ± 18 nM and 200 ± 40 nM.
In the same order, the values of `COc1cc(N2CCN(C)CC2)ccc1Nc1ncc2c(n1)N(C)c1ccc(F)cc1C(=O)N2C` [Compound 20] are 873 ± 60 nM and 1320 ± 220 nM.
Turning to `COc1cc(N2CCN(C)CC2)ccc1Nc1ncc2c(n1)N(C)c1cc(Cl)ccc1C(=O)N2C` [Compound 21], the IC50 in assay [1] turned out to be 1130 ± 160 nM. Further, the EC50 in assay [2] is 1240 ± 240 nM.
Consider `COc1cc(N2CCN(C)CC2)ccc1Nc1ncc2c(n1)N(C)c1ccc(Cl)cc1C(=O)N2C` [Compound 22], for which, in assay [1], the IC50 amounted to 5090 ± 52 nM. In assay [2], the half-maximal effective concentration (EC50) was determined as 11400 ± 2040 nM.
In the same order, the values of `COc1cc(N2CCN(C)CC2)ccc1Nc1ncc2c(n1)N(C)c1cc(C)ccc1C(=O)N2C` [Compound 23] are 2460 ± 260 nM and 3100 ± 620 nM.

Values taken from paper PMC3914206.
